Measured values reported in patent US11566007B2, “Ras inhibitors” (Revolution Medicines, Inc., priority 2019, dated 2023).

What was measured:
K-Ras G12C = K-Ras G12C (Homo sapiens (Human), UniProt P01116+P62937, G12C); test: Ras-Raf (BRAF RBD) disruption / FRET / MOA assay, KRAS G12C; type: biochemical; details: KRAS G12C; Ras-Raf disruption/FRET/MOA assay; read-out: IC50* KRAS G12C FRET data
Outline: (§1)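 Ras:RAF disruption was scored as a fall in TR-FRET ratio relative to DMSO. Compound ranged in 3-fold steps over 10 points from 30 μM final; incubation ran 3 h at 25° C, detection antibodies a further 1.5 h. Reported as IC50.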

KRAS G12D = KRAS G12D (Homo sapiens (Human), UniProt P01116+P62937, G12D); test: Ras-Raf (BRAF RBD) disruption / FRET / MOA assay, KRAS G12D; type: biochemical; details: Ras-Raf disruption/FRET/MOA assay; class symbols; read-out: KRAS G12D FRET data IC50
Chain of KRAS G12D (P01116-2 other isoform, or with tags, fused parts or gaps G12D): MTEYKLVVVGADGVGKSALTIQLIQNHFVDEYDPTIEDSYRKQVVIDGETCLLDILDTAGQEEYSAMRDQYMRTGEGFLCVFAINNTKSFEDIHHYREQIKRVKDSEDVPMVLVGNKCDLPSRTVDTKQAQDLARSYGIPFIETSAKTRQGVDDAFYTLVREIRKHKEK
Chain of KRAS G12D (P62937 whole entry): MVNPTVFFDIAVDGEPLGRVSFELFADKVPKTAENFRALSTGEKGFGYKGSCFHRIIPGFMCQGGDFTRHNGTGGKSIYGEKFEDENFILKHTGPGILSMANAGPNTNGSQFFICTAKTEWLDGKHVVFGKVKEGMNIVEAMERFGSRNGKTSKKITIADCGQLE
Outline: as §1

KRAS Q61H = KRAS Q61H (Homo sapiens (Human), UniProt P01116+P62937, Q61H); test: Ras-Raf (BRAF RBD) disruption / FRET / MOA assay, KRAS Q61H; type: biochemical; details: Ras-Raf disruption/FRET/MOA assay; class symbols; read-out: KRAS Q61H FRET data IC50
Chain of KRAS Q61H (P01116-2 other isoform, or with tags, fused parts or gaps Q61H): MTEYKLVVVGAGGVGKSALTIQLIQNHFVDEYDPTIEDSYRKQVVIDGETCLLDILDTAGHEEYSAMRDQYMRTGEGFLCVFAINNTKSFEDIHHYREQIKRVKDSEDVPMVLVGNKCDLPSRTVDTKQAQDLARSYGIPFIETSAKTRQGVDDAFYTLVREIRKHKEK
Chain of KRAS Q61H (P62937 whole entry): as the sequence (P62937 whole entry) above
Outline: (§2)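 TR-FRET disruption of nucleotide-loaded Ras binding to BRAF RBD via compound-driven ternary complex with cyclophilin A. Compound as 10-point 3-fold series from 30 μM final, 3 h at 25° C, then anti-His Eu-W1024 (10 nM) and anti-GST allophycocyanin (50 nM) for 1.5 h. IC50 from decreased FRET ratio versus DMSO.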

K-Ras G13C = K-Ras G13C (Homo sapiens (Human), UniProt P01116+P62937, G13C); test: Ras-Raf (BRAF RBD) disruption / FRET / MOA assay, KRAS G13C; type: biochemical; details: KRAS G13C; Ras-Raf disruption/FRET/MOA assay; read-out: IC50* KRAS G13C FRET data
Chain of K-Ras G13C (P01116-2 other isoform, or with tags, fused parts or gaps G13C): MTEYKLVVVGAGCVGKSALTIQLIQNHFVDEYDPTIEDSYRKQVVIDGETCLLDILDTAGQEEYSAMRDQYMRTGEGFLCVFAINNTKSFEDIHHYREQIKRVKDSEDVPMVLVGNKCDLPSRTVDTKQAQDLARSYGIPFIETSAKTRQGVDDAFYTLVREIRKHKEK
Chain of K-Ras G13C (P62937 whole entry): as the sequence (P62937 whole entry) above
Outline: as §1

KRAS WT = KRAS WT (Homo sapiens (Human), UniProt P01116+P62937); test: Ras-Raf (BRAF RBD) disruption / FRET / MOA assay, KRAS WT; type: biochemical; details: read-out: IC50* KRAS WT FRET data
Chain of KRAS WT (P01116-2 other isoform, or with tags, fused parts or gaps): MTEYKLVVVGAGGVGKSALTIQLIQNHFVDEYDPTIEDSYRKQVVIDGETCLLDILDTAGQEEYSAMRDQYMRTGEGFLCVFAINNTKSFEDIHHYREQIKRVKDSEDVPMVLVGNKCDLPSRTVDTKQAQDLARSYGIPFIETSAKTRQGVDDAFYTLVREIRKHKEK
Chain of KRAS WT (P62937 whole entry): as the sequence (P62937 whole entry) above
Outline: as §1

NRAS WT = NRAS WT (Homo sapiens (Human), UniProt P01111+P62937); test: Ras-Raf (BRAF RBD) disruption / FRET / MOA assay, NRAS WT; type: biochemical; details: read-out: IC50* NRAS WT FRET data
Chain of NRAS WT (P01111 whole entry): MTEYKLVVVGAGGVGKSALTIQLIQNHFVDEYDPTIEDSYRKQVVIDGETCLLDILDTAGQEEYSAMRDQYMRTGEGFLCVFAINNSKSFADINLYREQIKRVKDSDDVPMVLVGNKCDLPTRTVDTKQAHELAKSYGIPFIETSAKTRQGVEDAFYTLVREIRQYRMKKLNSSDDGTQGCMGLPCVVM
Chain of NRAS WT (P62937 whole entry): as the sequence (P62937 whole entry) above
Outline: as §2

NRAS Q61K = NRAS Q61K (Homo sapiens (Human), UniProt P01111+P62937, Q61K); test: Ras-Raf (BRAF RBD) disruption / FRET / MOA assay, NRAS Q61K; type: biochemical; details: NRAS Q61K; Ras-Raf disruption/FRET/MOA assay; read-out: IC50* NRAS Q61K FRET data
Chain of NRAS Q61K (P01111 whole entry Q61K): as the sequence (P01111 whole entry) above, with Q61K counted along it
Chain of NRAS Q61K (P62937 whole entry): as the sequence (P62937 whole entry) above
Outline: as §2

NRAS Q61R = NRAS Q61R (Homo sapiens (Human), UniProt P01111+P62937, Q61R); test: Ras-Raf (BRAF RBD) disruption / FRET / MOA assay, NRAS Q61R; type: biochemical; details: NRAS Q61R; Ras-Raf disruption/FRET/MOA assay; read-out: IC50* NRAS Q61R FRET data
Chain of NRAS Q61R (P01111 whole entry Q61R): as the sequence (P01111 whole entry) above, with Q61R counted along it
Chain of NRAS Q61R (P62937 whole entry): as the sequence (P62937 whole entry) above
Outline: as §2

KRAS G13D = KRAS G13D (Homo sapiens (Human), UniProt P01116+P62937, G13D); test: Ras-Raf (BRAF RBD) disruption / FRET / MOA assay, KRAS G13D; type: biochemical; details: read-out: IC50* KRAS G13D FRET data
Chain of KRAS G13D (P01116-2 other isoform, or with tags, fused parts or gaps G13D): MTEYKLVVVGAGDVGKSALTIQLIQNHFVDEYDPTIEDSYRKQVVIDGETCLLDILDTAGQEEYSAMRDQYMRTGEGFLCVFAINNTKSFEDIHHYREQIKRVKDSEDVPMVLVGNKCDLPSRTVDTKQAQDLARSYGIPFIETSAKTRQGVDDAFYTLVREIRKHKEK
Chain of KRAS G13D (P62937 whole entry): as the sequence (P62937 whole entry) above
Outline: as §1

NRAS G12C = NRAS G12C (Homo sapiens (Human), UniProt P01111+P62937, G12C); test: Ras-Raf (BRAF RBD) disruption / FRET / MOA assay, NRAS G12C; type: biochemical; details: read-out: IC50* NRAS G12C FRET data
Chain of NRAS G12C (P01111 whole entry G12C): as the sequence (P01111 whole entry) above, with G12C counted along it
Chain of NRAS G12C (P62937 whole entry): as the sequence (P62937 whole entry) above
Outline: as §1

NCI-H358 (K-Ras G12C) = test: CellTiter-Glo cell viability assay, NCI-H358; type: cell-based, human; details: Homo sapiens, NCI-H358, 120 h, NCI-H358, 5-day treatment; class symbols; read-out: Additional H358 Cell Viability assay data (K-Ras G12C, IC50)
Outline: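 Luminescent viability readout on day 5 after direct compound addition to plated cells; plates sat ~30 min at room temperature before reading. Values expressed as percent of mean DMSO signal, curves fit with a four-parameter logistic model.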

KRAS G12S = KRAS G12S (Homo sapiens (Human), UniProt P01116+P62937, G12S); test: Ras-Raf (BRAF RBD) disruption / FRET / MOA assay, KRAS G12S; type: biochemical; details: Ras-Raf disruption/FRET/MOA assay; class symbols; read-out: KRAS G12S FRET data IC50
Chain of KRAS G12S (P01116-2 other isoform, or with tags, fused parts or gaps G12S): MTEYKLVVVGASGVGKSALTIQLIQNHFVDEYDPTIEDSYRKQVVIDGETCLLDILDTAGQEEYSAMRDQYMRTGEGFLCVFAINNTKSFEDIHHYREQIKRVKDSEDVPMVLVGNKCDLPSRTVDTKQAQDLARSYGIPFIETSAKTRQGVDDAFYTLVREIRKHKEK
Chain of KRAS G12S (P62937 whole entry): as the sequence (P62937 whole entry) above
Outline: as §1

Chain of K-Ras G12C (P01116-2 other isoform, or with tags, fused parts or gaps G12C): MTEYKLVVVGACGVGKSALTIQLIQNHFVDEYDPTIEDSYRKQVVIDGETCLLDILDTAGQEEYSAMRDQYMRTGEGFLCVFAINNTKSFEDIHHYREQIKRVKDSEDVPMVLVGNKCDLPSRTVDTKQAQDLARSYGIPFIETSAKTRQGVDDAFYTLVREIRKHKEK
Chain of K-Ras G12C (P62937 whole entry): as the sequence (P62937 whole entry) above

| SMILES | IC50 (K-Ras G12C) | IC50 (KRAS G12D) | IC50 (KRAS Q61H) | IC50 (K-Ras G13C) | IC50 (KRAS WT) | IC50 (NRAS WT) | IC50 (NRAS Q61K) | IC50 (NRAS Q61R) | IC50 (KRAS G13D) | IC50 (NRAS G12C) | IC50 (NCI-H358 (K-Ras G12C)) | IC50 (KRAS G12S) |
| --- | --- | --- | --- | --- | --- | --- | --- | --- | --- | --- | --- | --- |
| CO[C@@H](C)c1ncccc1-c1c2c3cc(ccc3n1CC(F)(F)F)-c1cc(cc(C(F)F)c1)C[C@H](NC(=O)[C@@H](COC1CN(C(=O)C#CC(C)(C)N(C)C)C1)C(C)C)C(=O)N1CCC[C@H](N1)C(=O)OCC(C)(C)C2 (atropisomer, axis not shown) [Example A374] | 0.1 to 1 µM | > 10 µM | > 10 µM | > 10 µM | > 10 µM | > 10 µM | > 10 µM | > 10 µM | > 10 µM | 0.1 to 1 µM | 0.01 to 0.1 µM | > 10 µM |
| CCn1c(-c2cccnc2[C@H](C)OC)c2c3cc(ccc31)-c1csc(n1)C[C@H](NC(=O)CCO[C@H]1CCN(C(=O)C#CC(C)(C)N3CCC3)C1)C(=O)N1CCC[C@H](N1)C(=O)OCC(C)(C)C2 (atropisomer, axis not shown) [Example A381] | < 0.01 µM | 1 to 10 µM | 1 to 10 µM | 1 to 10 µM | 1 to 10 µM | 1 to 10 µM | 1 to 10 µM | 1 to 10 µM | 1 to 10 µM | 0.01 to 0.1 µM | 0.01 to 0.1 µM | 1 to 10 µM |
| C=CC(=O)N(C)C[C@@H]1CCN1C(=O)N(C)[C@H](C(=O)N[C@H]1Cc2nc(cs2)-c2ccc3c(c2)c(c(-c2cccnc2[C@H](C)OC)n3CC)CC(C)(C)COC(=O)[C@@H]2CCCN(N2)C1=O)C(C)C (atropisomer, axis not shown) [Example A390] | 0.1 to 1 µM | 1 to 10 µM | 0.1 to 1 µM | 0.1 to 1 µM | 1 to 10 µM | 1 to 10 µM | 0.1 to 1 µM | 1 to 10 µM | 1 to 10 µM | 0.1 to 1 µM | 0.1 to 1 µM | 1 to 10 µM |
| C=CC(=O)N1CC[C@H](C(=O)N(C)[C@H](C(=O)N[C@H]2Cc3cccc(c3)-c3ccc4c(c3)c(c(-c3cc(C5CN(C)C5)cnc3[C@H](C)OC)n4CC)CC(C)(C)COC(=O)[C@@H]3CCCN(N3)C2=O)C(C)C)C1 (atropisomer, axis not shown) [Example A392] | 0.1 to 1 µM | > 10 µM | 1 to 10 µM | 1 to 10 µM | 1 to 10 µM | 1 to 10 µM | > 10 µM | 1 to 10 µM | > 10 µM | 0.1 to 1 µM | 0.01 to 0.1 µM | 1 to 10 µM |
| C=CC(=O)N1CC[C@H](C(=O)N(C)[C@H](C(=O)N[C@H]2Cc3cccc(n3)-c3ccc4c(c3)c(c(-c3cccnc3[C@H](C)OC)n4CC)CC(C)(C)COC(=O)[C@@H]3CCCN(N3)C2=O)C(C)C)C1 (atropisomer, axis not shown) [Example A442] | 0.1 to 1 µM | > 10 µM | 1 to 10 µM | 1 to 10 µM | > 10 µM | > 10 µM | 1 to 10 µM | 1 to 10 µM | > 10 µM | 0.1 to 1 µM | 0.01 to 0.1 µM | 1 to 10 µM |
| C=CC(=O)N1CC[C@H](C(=O)N(C)[C@H](C(=O)N[C@H]2Cc3cccc(c3)-c3ccc4c(c3)c(c(-c3cccnc3[C@H](C)OC)n4CC3COC3)CC(C)(C)COC(=O)[C@@H]3CCCN(N3)C2=O)C(C)C)C1 (atropisomer, axis not shown) [Example A481] | 0.1 to 1 µM | > 10 µM | 1 to 10 µM | 1 to 10 µM | 1 to 10 µM | 1 to 10 µM | 1 to 10 µM | 1 to 10 µM | > 10 µM | 0.1 to 1 µM | 0.01 to 0.1 µM | 1 to 10 µM |
